Results taken from patent US20050186568A1, “Kinases and phosphatases” (priority 2001, published 2005).

What was measured:
SEQ ID NO:57 = assay: Microarray analysis of SEQ ID NO:57 expression in steroid-treated C3A cells; type: cell-based, human; details: early confluent C3A cells, 1, 3 and 6 hours (all time points), compared to untreated C3A cells
Experimental: Total RNA is isolated from tissue samples using the guanidinium thiocyanate method and poly(A)^+ RNA is purified using the oligo-(dT) cellulose method. Each poly(A)^+ RNA sample is reverse transcribed using MMLV reverse-transcriptase, 0.05 pg/μl oligo-(dT) primer (21 mer), 1× first strand buffer, 0.03 units/μl RNase inhibitor, 500 μM dATP, 500 μM dGTP, 500 μM dTTP, 40 μM dCTWP, 40 μM dCTP-Cy3 (BDS) or dCTP-Cy5 (Amersham Biosciences). The reverse transcription reaction is performed in a […] containing 200 ng poly(A)^+ RNA with GEMBRIGHT kits (Incyte Genomics). Specific control poly(A)^+ RNAs are synthesized by in vitro transcription from non-coding yeast genomic DNA. After incubation at 37° C. for 2 hr, each reaction sample (one with Cy3 and another with Cy5 labeling) is treated with […] of 0.5M sodium hydroxide and incubated for 20 minutes at 85° C. to the stop the reaction and degrade the RNA. Samples are purified using two successive CHROMA SPIN 30 gel filtration spin columns (Clontech, Palo Alto Calif.) and after combining, both reaction samples are ethanol precipitated using […] of 100% ethanol. […]
Sequences of the present invention are used to generate array elements. […] Array elements are amplified in thirty cycles of PCR from an initial quantity of 1-2 ng to a final quantity greater than 5 μg. […]

SEQ ID NO:67 = assay: Microarray analysis of SEQ ID NO:67 expression in steroid-treated C3A cells; type: cell-based, human; details: early confluent C3A cells treated for 1, 3, or 6 hours
Experimental: Total RNA is isolated from tissue samples using the guanidinium thiocyanate method and poly(A)^+ RNA is purified using the oligo-(dT) cellulose method. Each poly(A)^+ RNA sample is reverse transcribed using MMLV reverse-transcriptase, 0.05 pg/μl oligo-(dT) primer (21 mer), 1× first strand buffer, 0.03 units/μl RNase inhibitor, 500 μM dATP, 500 μM dGTP, 500 μM dTTP, 40 μM dCTWP, 40 μM dCTP-Cy3 (BDS) or dCTP-Cy5 (Amersham Biosciences). The reverse transcription reaction is performed in a […] containing 200 ng poly(A)^+ RNA with GEMBRIGHT kits (Incyte Genomics). Specific control poly(A)^+ RNAs are synthesized by in vitro transcription from non-coding yeast genomic DNA. After incubation at 37° C. for 2 hr, each reaction sample (one with Cy3 and another with Cy5 labeling) is treated with […] of 0.5M sodium hydroxide and incubated for 20 minutes at 85° C. to the stop the reaction and degrade the RNA. Samples are purified using two successive CHROMA SPIN 30 gel filtration spin columns (Clontech, Palo Alto Calif.) and after combining, both reaction samples are ethanol precipitated using […] of 100% ethanol. The sample is then dried to completion using a SpeedVAC (Savant Instruments Inc., Holbrook N.Y.) and resuspended in 14 μl 5×SSC/0.2% SDS.
Sequences of the present invention are used to generate array elements. Each array element is amplified from bacterial cells containing vectors with cloned cDNA inserts. PCR amplification uses primers complementary to the vector sequences flanking the cDNA insert. Array elements are amplified in thirty cycles of PCR from an initial quantity of 1-2 ng to a final quantity greater than 5 μg. Amplified array elements are then purified using SEPHACRYL-400 (Amersham Biosciences).
Purified array elements are immobilized on polymer-coated glass slides. Glass microscope slides (Corning) are cleaned by ultrasound in 0.1% SDS and acetone, with extensive distilled water washes between and after treatments. Glass slides are etched in 4% hydrofluoric acid (VWR Scientific Products Corporation (VWR), West Chester Pa.), washed extensively in distilled water, and coated with 0.05% aminopropyl silane (Sigma) in 95% ethanol. Coated slides are cured in a 110° C. oven.
Array elements are applied to the coated glass substrate using a procedure described in U.S. Pat. No. 5,807,522, incorporated herein by reference. 1 μl of the array element DNA, at an average concentration of 100 ng/μl, is loaded into the open capillary printing element by a high-speed robotic apparatus. The apparatus then deposits about 5 nl of array element sample per slide.
Microarrays are UV-crosslinked using a STRATALINKER UV-crosslinker (Stratagene). […]

CKI-epsilon = CKI-epsilon (Homo sapiens, UniProt P49674); details: recombinant expression; cited from earlier work
Sequence of CKI-epsilon (P49674 whole entry): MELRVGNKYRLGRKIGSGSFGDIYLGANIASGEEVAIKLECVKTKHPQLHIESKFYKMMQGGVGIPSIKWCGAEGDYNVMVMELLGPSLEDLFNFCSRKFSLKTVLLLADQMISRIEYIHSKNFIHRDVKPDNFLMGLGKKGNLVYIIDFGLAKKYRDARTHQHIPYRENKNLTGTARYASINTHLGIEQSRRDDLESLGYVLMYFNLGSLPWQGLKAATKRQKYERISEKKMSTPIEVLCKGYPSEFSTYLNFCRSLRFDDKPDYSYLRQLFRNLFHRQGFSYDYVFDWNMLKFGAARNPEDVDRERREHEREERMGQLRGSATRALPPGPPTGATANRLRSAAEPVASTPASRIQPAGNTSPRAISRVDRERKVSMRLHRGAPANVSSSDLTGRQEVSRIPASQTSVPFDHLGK

[1] = relative to progesterone; cited from earlier work

| Compound | expression of SEQ ID NO:67 (SEQ ID NO:67) | other results |
| --- | --- | --- |
| C[C@H]1C[C@H]2[C@@H]3CCC4=CC(=O)C=C[C@]4(C)[C@@]3(Cl)[C@@H](O)C[C@]2(C)[C@@]1(O)C(=O)CO [beclomethasone] | at least a two-fold decrease | expression of SEQ ID NO:57 (SEQ ID NO:57; beclamethasone at 10 μM): increased by at least two-fold |
| NCCNS(=O)(=O)c1ccc(Cl)c2ccncc12 [CKI-7] |  | inhibition of CKI-epsilon (CKI-epsilon): inhibited |
| C[C@]12C=CC(=O)C=C1CC[C@@H]1[C@@H]2C(=O)C[C@@]2(C)[C@H]1CC[C@]2(O)C(=O)CO [prednisone] | at least a two-fold decrease |  |
| CC(=O)[C@H]1CC[C@H]2[C@@H]3CCC4=CC(=O)CC[C@]4(C)[C@H]3CC[C@]12C [progesterone] | at least a two-fold decrease | expression of SEQ ID NO:57 (SEQ ID NO:57; progesterone at 100 μM): increased by at least two-fold |
| 6α-methyl-17-hydroxyprogesterone [medroxyprogesterone] | at least a two-fold decrease | pharmacological activity greater than progesterone [1]: about 15 times |
